In patent US20250381242A1 (INVAIO SCIENCES, INC., priority 2024, published 2025):
No end group written: not given here.

How the values were obtained:
A. tumefaciens = conditions: 24 h, 10 μM
L. crescens = conditions: 10 μM
E. coli = assay: Bacterial growth inhibition by OD600 absorbance, E. coli; format: cell-based, E. coli (DH5-alpha); conditions: peptide 10 μM, 24 hours at 37° C., OD 600 nm
Method in brief: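 Percent inhibition was calculated from initial and 24 h OD600 readings against DMSO (0.1%) and antibiotic controls. Cultures received 10 μM peptide and were incubated at 30° C. (X. citri) or 37° C. (E. coli).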

X. citri = assay: Bacterial growth inhibition by OD600 absorbance, X. citri; format: cell-based, X. citri subsp. citri (ATCC 49118); conditions: peptide 10 μM, 24 hours at 30° C., OD 600 nm
E. amylovora = conditions: 24 h, 10 μM

Sequence	growth inhibition, A. tumefaciens (A. tumefaciens)	growth inhibition, L. crescens (L. crescens)	growth inhibition, E. coli (E. coli)	growth inhibition, X. citri (X. citri)	growth inhibition, E. amylovora (E. amylovora)
KFWSLLKKALRLWANVL [compound 76]	100.00%	99.76%	100.00%	100.00%	100.00%
FQRYFHRYARFLAKIWKG [compound 62]	100.00%	<90%	<90%	100.00%	100.00%
KFLKKAKKFGKAFVKIL [compound 83]	99.31%	<90%	<90%	<90%	100.00%
GIMSSLMKKLKKIIAK [compound 99]	98.76%	<90%	<90%	<90%	100.00%
KWVKKWVKKWVK [compound 110]	<90%	<90%	<90%	100.00%	98.51%
WFGHLYRGITKVVKHVHGLLKG [compound 40]	100.00%	<90%	100.00%	100.00%	100.00%
KWYKKWYKKWYKKWYK [compound 54]	99.49%	<90%	100.00%	100.00%	100.00%
RKYVRFLHRWVKYFRAYL [compound 47]	<90%	<90%	99.75%	<90%	<90%
GILKTIKSIASKLKRKAK [compound 85]	<90%	<90%	<90%	<90%	99.65%
KNWKGIAGMAKKLLGKNWKLM [compound 59]	99.61%	<90%	<90%	100.00%	100.00%
KWAVRIIRKFIKGFIS [compound 88]	100.00%	<90%	96.20%	<90%	100.00%
KFFKRLLKSVRRAVKKFRKKPRLIGLSTLL [compound 8]	99.88%	<90%	100.00%	100.00%	100.00%
GANALKKYFTILKKFFKLAW [compound 61]	<90%	<90%	100.00%	<90%	<90%
GWKKWLRKGAKHLGQAAIKGLAS [compound 46]	100.00%	<90%	100.00%	100.00%	100.00%
WFGKLYRGITSVVKKVKGLLSG [compound 55]	100.00%	<90%	100.00%	100.00%	100.00%
LHRLVKLVAALLRGYASKVDTH [compound 53]	100.00%	<90%	100.00%	100.00%	100.00%
SWKSMAKKLKEYMEKLKQRA [compound 50]	99.59%	<90%	<90%	<90%	100.00%
KKIGKKAAKKVIVKAIQAIV [compound 73]	<90%	<90%	<90%	<90%	99.94%
